Measurements taken from ChEMBL document CHEMBL1137776, “Structural assessment and biological evaluation of two N3S bombesin derivatives” (J Med Chem, 2009).

Target: Gastrin-releasing peptide receptor (Homo sapiens, UniProt P30550)
Assay: Displacement of [125I-Tyr4]BN form BB2 receptor in human PC3 cells
Type: cell-based, PC-3

Gastrin-releasing peptide receptor, sequence (P30550 whole entry): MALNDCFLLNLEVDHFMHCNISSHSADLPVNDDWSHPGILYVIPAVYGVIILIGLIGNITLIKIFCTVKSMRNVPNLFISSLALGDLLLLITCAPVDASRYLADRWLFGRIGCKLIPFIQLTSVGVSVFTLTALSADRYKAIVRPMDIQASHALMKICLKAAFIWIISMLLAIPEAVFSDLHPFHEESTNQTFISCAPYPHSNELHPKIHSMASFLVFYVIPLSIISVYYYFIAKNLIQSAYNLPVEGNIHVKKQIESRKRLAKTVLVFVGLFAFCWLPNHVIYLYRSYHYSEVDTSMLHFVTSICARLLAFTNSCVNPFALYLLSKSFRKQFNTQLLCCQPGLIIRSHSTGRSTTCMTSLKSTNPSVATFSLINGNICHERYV

| IC50 [nM] | SMILES |
| --- | --- |
| 1.45 | CSCC[C@H](NC(=O)[C@H](CC(C)C)NC(=O)[C@H](Cc1cnc[nH]1)NC(=O)CNC(=O)[C@@H](NC(=O)[C@H](C)NC(=O)[C@H](Cc1c[nH]c2ccccc12)NC(=O)[C@H](CCC(N)=O)NC(=O)CCCCCNC(=O)[C@H](CS)NC(=O)CNC(=O)CN)C(C)C)C(N)=O |
| 0.59 | CSCC[C@H](NC(=O)[C@H](CC(C)C)NC(=O)[C@H](Cc1cnc[nH]1)NC(=O)CNC(=O)[C@@H](NC(=O)[C@H](C)NC(=O)[C@H](Cc1c[nH]c2ccccc12)NC(=O)[C@H](CCC(N)=O)NC(=O)[C@H](CC(N)=O)NC(=O)CNC(=O)[C@H](CC(C)C)NC(=O)[C@H](CCCNC(=N)N)NC(=O)[C@H](CCC(N)=O)NC(=O)CCCCCNC(=O)[C@H](CS)NC(=O)CNC(=O)CN)C(C)C)C(N)=O |
